Data from patent US8901120B2, “Substituted N-phenylpyrimidin-2-amine analogs as inhibitors of the Axl kinase” (University of Utah Research Foundation, priority 2011, dated 2014).

Tests used:
[1] = test system: sAxl in PL45 and PSN-1 cells; assay: Release of sAxl into cell culture media (ELISA); format: cell-based, Human; details: PL45 and PSN-1, serum-free, 24 hours, vs vehicle, FIG. 11
Description: Cell lines were plated and incubated overnight as described above. The following day the media was changed to serum-free and the cells were treated as indicated as indicated. After 24 hours, the media from the treatments were analyzed for sAxl (R&D Systems, Minneapolis, Minn.).
The proteolytic processing of the extracellular domain of the Axl receptor is a known event downstream of Axl activation and results in the release of soluble Axl (sAxl) into the cell culture media (in vitro) or into the blood stream (in vivo).

[2] = Pharmacokinetics after oral dosing; format: in vivo; details: mouse, mice, 50 mg/kg orally, plasma
Description: Mice were dosed orally with 50 mg/kg of the title compound. Blood was collected at the indicated time points (see FIG. 16).

[3] = test system: Axl and the related members of the TAM family of kinases; assay: Kinase profiling, Axl and TAM family; format: biochemical; details: 200 nM test compound, ATP at Km apparent, FIG. 9
Description: (§1) The specificity of kinase inhibition was assessed with a representative compound, 2-((5-chloro-2-((4-((4-methylpiperazin-1-yl)methyl)phenyl)amino)pyrimidin-4-yl)amino)-N,N-dimethylbenzenesulfonamide, by determining the activity of this test compound against a panel of protein kinases. Kinase profiling was performed against a focus panel of kinases relevant to PDK1 signaling and other known oncogenic kinases. The panel comprised 75 distinct protein kinases, and data are shown for a subset of 39 kineases (see FIG. 9). […] The results from this screen confirmed good activity against Axl and the related members of the TAM family of kinases.

JAK family of kinases = assay: Kinase profiling, JAK family; format: biochemical; details: 200 nM test compound, ATP at Km apparent, FIG. 9
Description: as §1

[4] = test system: phosphorylated Akt (Ser473); assay: GAS6-Axl signalling assay, phosphorylated Akt; format: cell-based; details: Homo sapiens; PSN-1 and PL45 cells, in the presence of Gas6, FIG. 8A; read-out: IC50, inhibition of phosphorylated Akt levels
Description: (§2) Cell lines were seeded in 1 ml of the appropriate growth media with 10% FBS into 6-well plates (8×10^5 cells/well) and incubated overnight at 37° C. and 5% CO2. The following day, serum-containing growth media was replaced by serum-free media and incubated for 4 hr, and then test compounds were added to the cells at desired concentrations and incubated for an additional 2 hr. To stimulate Axl signaling, Gas6 was added to each well to a concentration of 3 μg/ml and incubated for 10 min. The cells were lysed immediately and the lysates used in a multiplex ELISA kit (Meso Scale Discovery, Gaithersburg, Md.) to quantitate the phosphorylated AKT (at position Ser473′ “pAkt”) or phosphorylated Axl (“pAxl”).
To further explore the activity of a representative compound, 2-((5-chloro-2-((4-((4-methylpiperazin-1-yl)methyl)phenyl)amino)pyrimidin-4-yl)amino)-N,N-dimethylbenzenesulfonamide, of inhibiting Axl in a cell line system, the effect of the test compound on Akt phosphorylation (at the Ser473 position) was determined. The effect on Akt phosphorylation was assessed in two cell-lines (see FIG. 8A): PSN-1 and PL45. The overall method was as described above. Briefly, the cells were treated as indicated and lysates from these treatments were analyzed for phosphorylated Akt (Ser473) as described above.

[5] = test system: phosphorylated Axl (pAxl); assay: GAS6-Axl signalling assay, autophosphorylation of Axl; format: cell-based, Human; details: pancreatic cancer cell lines, GAS6 stimulation, FIG. 8B
Description: as §2

PSN-1 cells = assay: Tumor xenograft animal model; format: in vivo, mouse; details: PSN-1 xenograft, 50 mg/kg oral gavage daily (M-F)
Description: The in vivo activity of the foregoing compound was assessed in a tumor xenograft model in mouse. PSN-1 cells were cultured as described above and harvested. Cells (2 to 5×10^6 in 100 μl culture media) were implanted subcutaneously in the right hind flank of athymic nu/nu nude mice (5 to 6 weeks old, 18-22 g). Following implantation, the tumors are allowed to grow to 100 mm^3 before the animals are randomized into treatment groups (vehicle and test compound). Day 1 of study corresponds to the day that the animals receive their first dose of test compound (2-((5-chloro-2-((4-((4-methylpiperazin-1-yl)methyl)phenyl)amino)pyrimidin-4-yl)amino)-N,N-dimethylbenzenesulfonamide). The vehicle for this study was 5% EtOH, 45% PEG 400, and 50% water, and animals were dosed with either vehicle or test compound dissolved in this vehicle by oral gavage. The dose level was 50 mg/kg and dosing frequency was daily (M-F) with the test compound with recovery on the weekend.
The test compound was efficacious in limiting tumor growth, achieving about a 50% reduction in tumor volume at this dose level during this dosing period (FIG. 15).

Aurora family of kinases = assay: Kinase profiling, Aurora family; format: biochemical; details: 200 nM test compound, ATP at Km apparent, FIG. 9
Description: as §1

pancreatic cancer cells = assay: Cell migration assay (collagen I Platypus plates); format: cell-based; details: 18 hours migration, with Gas6, FIG. 10
Description: In this system, a gel prevents attachment of cells in a circle. The gel dissolves by exposure to the media, allowing cells to migrate into the open area. Cells migrated for 18 hours before fixation and staining. The extent of cell migration was determined by measuring the open surface in the inner circle of the well.

AUC(0-t) [2]: 507 ng·h/mL
Cmax [2]: 604 ng/mL
Tmax [2]: 15 min
half-life [2]: 66 min
activity against Axl and TAM family kinases in kinase profiling [3]: good activity
activity against JAK family kinases in kinase profiling (JAK family of kinases): significant activity
IC50 [4]: ~300 nM
activity against Aurora family kinases in kinase profiling (Aurora family of kinases): significant activity
SMILES: CN1CCN(Cc2ccc(Nc3ncc(Cl)c(Nc4ccccc4S(=O)(=O)N(C)C)n3)cc2)CC1 [2-((5-chloro-2-((4-((4-methylpiperazin-1-yl)methyl)phenyl)amino)pyrimidin-4-yl)amino)-N,N-dimethylbenzenesulfonamide]
reduction in sAxl levels in conditioned media [1]: significant dose-dependent reductions
inhibition of autophosphorylation of Axl [5]: dramatically inhibited
impact on body weight (PSN-1 cells; FIG. 14): no apparent impact
reduction in tumor volume (PSN-1 cells; FIG. 15): ~50%
inhibition of Gas6-induced migration and invasion (pancreatic cancer cells): inhibited
